Laboratory results: patent publication US4863748A, “Dietary products and uses comprising methylsulfonylmethane” (priority 1986, dated 1989)

Experiments:
eye = test: Inflammation of the eye following accidental injury (Example 14); format: in vivo, human; settings: 15% solution in isotonic saline
Text: A 15% solution of methylsulfonylmethane in isotonic saline was a soothing treatment for the eye following accidental injury due to particulate matter in the eye as dust or pollen.

[1] = Pin worm (Enterobius) infection in laboratory mice (Examples 19 and 28(c)); format: in vivo; settings: mouse, blood, po; one animal examined; 2% by wt. in feed and drinking water; read-out: blood level of methylsulfonylmethane
Text: Laboratory mice determined by fecal cast examination to have pin worms were given commercial feed and drinking water, ad lib, both of which contained 2% by wt. methylsulfonylmethane. […] The blood level of methylsulfonylmethane in one animal examined exceeded 30 ppm.
Laboratory mice determined by fecal cast examination to have pin worms were given 2% by wt. of methylsulfonylmethane in both their commercial feed and drinking water, ad lib.

leg cramps = test: Leg cramps in marathon runner (Example 27); format: in vivo, human; settings: 15 mg/kg/day, at least 7 days
Protocol: Before a marathon race, administer methylsulfonylmethane to the runner for at least 7 days at the rate of 15 mg/kg/day.

acute pain = test: Acute pain (Example 21); format: in vivo, human; settings: single 1.5 gm dose; two 1 gm doses at 4-hour intervals, oral
nail growth = test: Nail growth in dogs (Example 6); format: in vivo, dog (female labradors); settings: 5% in drinking water, 45 days
Text: Rate of nail growth is an indication of the overall health of an animal. To determine the effect of methylsulfonylmethane on nail growth, two litter mate female labradors, age 8.5 months, were maintained in side by side straw bedded cages. Before any testing, the front paws of each dog were embedded in partially set plaster of paris, allowing the animals to exert full body weight, thereby obtaining good clear impressions of paw pads and nail length.
Each dog was fed Purina dog chow and water ad lib for 45 days. One of the dogs, (Animal A) had no ration change and the other (Animal B) was supplied only with water containing 5% of methylsulfonylmethane dissolved therein. After 45 days, plaster impressions of the front paws of each dog were again taken. Once the plaster had fully hardened the pre- and post-testing castings of each animal were compared. The straw bedding protected both animals from normal nail wear. On visual examination, the nails of Animal B, the animal receiving methylsulfonylmethane in its water, were obviously longer. Upon comparing the castings it was seen that Animal B had nails that averaged about 1/8 inch greater length than those of Animal A.

[2] = test system: bilateral fibrinous pleuritis; test: Bilateral fibrinous pleuritis in a breeding mare (Examples 4 and 24); format: in vivo, horse (mare)
Protocol: A valuable breeding mare, treated for a respiratory infection developed bilateral fibrinous pleuritis, easily heard with auscultation of the chest. After six weeks therapy with a combination of conventional antibiotics and anti-inflammatory drugs, there was little if any improvement. Conventional therapy was terminated. Methylsulfonylmethane was added to the diet of this refractory case (24 g, twice daily, over a period of 5 days). This was the only special treatment given. […] Auscultation of the chest was negative.

anticholinesterases = test: Antagonism of lethal effects of anticholinesterases; settings: as stated in Example 19
mood and depression = test: Mental normalcy (Example 16); format: in vivo, human
Protocol: Students reported that while taking methylsulfonylmethane, their ability to concentrate is enhanced. Methylsulfonylmethane therefore is useful in conjunction with CNS therapeutants. The most useful application for methylsulfonylmethane seen to date in the field of mental normalizing is as an aid to the terminally ill, to relieve anxiety and depression.
To a chronically or terminally ill patient suffering from mental depression, administer […] body weight of methylsulfonylmethane daily, in tablet or capsule form, dissolved in water or a cold beverage, or admixed in a cold food. Within 12 hours to 2 days, a significant improvement in the mental attitude of the patient will be noted.

[3] = test system: pain in the mid-back region; test: Acute pain, comparison with codeine, urinary calculi, subject three (Example 32); format: in vivo, human; settings: 1.5 g in warm water, oral
Protocol: Methylsulfonylmethane was compared with codeine for the control of pain in subject three, a person who awakened in the early morning with excruciating pain in the mid-back region, so intense it was difficult to pin-point a specific region. […] Analgesic requirements were 1/2 grain codeine with aspirin every two hours. […] The intense pain returned. The subject was given 1.5 g of methylsulfonylmethane dissolved in 1/2 glass of warm water. At 0.5 hours after taking the methylsulfonylmethane, the pain had essentially disappeared. Methylsulfonylmethane (1.5 g/day) was continued until the afternoon of the third day, when X-ray confirmed that the calculi yet obstructed the ureter. Subject was switched again to codeine with aspirin (1/2 grain×2 hours). […] Methylsulfonylmethane was again administered (1.5 g×4 hours). On day 5 the calculi passed. Recovery was uneventful, requiring neither codeine, methylsulfonylmethane,nor a urinary tract antimicrobial.

mammary carcinoma = test: Resistance to DMBA-induced mammary carcinoma (Example 36); format: in vivo, female rats; settings: 2% by wt. in diet; Group 3; Group 2 (DMBA only) had cancers
Protocol: Forty-five female rats were stabilized to the laboratory and then divided into 3 groups of 15 each. Group 1 was designated control, Groups 2 and 3 were treated by topical application to the hair-free abdomen with a solution of the carcinogen dimethyl-benzanthracene (DMBA). All three groups were each fed a standard laboratory diet with water, ad lib. Group 3 also received in […] their standard diet 2% by wt. of methylsulfonylmethane.

[4] = test system: urinary taurine secretion; settings: man; cited from earlier work
[5] = test system: emphysema and lung tumor respiratory deficiency; test: Treatment of lung dysfunction (Example 29); format: in vivo, human
Protocol: Seven human subjects with respiratory deficiency were given methylsulfonylmethane by the oral route in amounts ranging from 250-1,500 mg/day, in single or divided units. Five presented emphysema believed associated with cigarette smoking. Two presented tumor involvement of the lung with additional function impairment due to pleural fluid accumulation.
Two of five subjects with emphysema had prior cardiorespiratory function tests and follow-up evaluations at six and eight weeks after starting a course of 500 mg/day orally of methylsulfonylmethane.
Prior to and during the test period, at approximately two-week intervals, all presenting emphysema were required to walk a measured distance compatible with their physical resources. […] The lung cavity fluid problem of each subject disappeared during the first months of the test period.

[6] = cited from earlier work
[7] = 24 g twice daily, 5 days (Example 4)

For `CS(C)(=O)=O` [methylsulfonylmethane], the “effect on the eye following accidental injury” value (eye) was “soothing”, the concentration at 408 h [1] was greater than 30000 ng/mL and the “likelihood of severe leg cramp during or after race” value (leg cramps) was “significantly reduced”. For the same compound, the “relief of acute mid-back pain (calculi obstructed ureter) and lower abdomen pain spasms” value (acute pain) was “proven useful in relieving acute pain”, the “greater average nail length vs Animal A” value (nail growth) was “about 1/8” and the response of pleuritis ([2]; 2×12 gm/day in diet, five days (Example 24)) was “responded favorably (normal breathing, negative ausculation of the chest)”. The “auscultation of the chest” value [2, 7] was “negative”, the “breathing at fifth day” value [2, 7] was “returned to normal” and the “pain at fifth day” value [2, 7] was “no longer demonstrated pain”. For the same compound, the “state over the next two years” value ([2]; followed two years after treatment (Example 4)) was “normal and healthy”, the “antagonism of anticholinesterases in vivo” value (anticholinesterases) was “antagonizes” and the “time to significant improvement in mental attitude” value (mood and depression; 1000 mg/kg body weight daily, chronically or terminally ill patient) was “Within 12 hours to 2 days”. The alertness (mood and depression; reported by individuals) was “increased alertness”, the depression frequency (mood and depression; reported by individuals) was “very infrequent depression” and the mood changes (mood and depression; reported by individuals) was “a plateau of mood changes”. The ability to concentrate (mood and depression; students) was “enhanced”, the “time to relief of depression” value (mood and depression; subjects intermittently on antidepression medication, days with prior medication) was “within hours rather than days” and the “time after which the pain had essentially disappeared” value [3] was 0.5 h. For the same compound, the “mammary carcinoma at 5 months post DMBA” value (mammary carcinoma) was “free of mammary carcinoma”, the “urinary taurine secretion produced by aromatic hydrocarbons” value [4] was “enhances” and the “cardiorespiratory function values, in particular arterial oxygen tension” value ([5]; 500 mg/day orally, two emphysema subjects, six and eight weeks) was “both had values in the normal range”. For the same compound, the comfortable walking distance ([5]; emphysema sufferers, alone or with 1000 mg ascorbic acid/day, within 2-4 weeks) was “at least doubled”, the “alertness, comfort and outlook” value ([5]; two subjects with lung tumors) was “more alert, comfortable, and with a better outlook and attitude” and the “lung cavity fluid problem” value ([5]; two subjects with lung tumors, first months) was “disappeared”. For the same compound, the motor activity ([6]; i.p.) was “reduces” and the body temperature ([6]; rats exposed to 5° C.) was “lowers”.
